Reference: patent US7786054B2, “Biocide for well stimulation and treatment fluids” (Kemira Chemicals, Inc., priority 2006, dated 2010)
“Also recorded” adds a separate entry of the source.

Key:
[1] = system: acid producing bacteria (AB); assay: Biocidal effectiveness on acid producing bacteria in spiked frac pond water, serial dilution counts over 180 days with challenges; type: cell-based
Protocol: (§1) In this example, the biocidal effectiveness on sulfate reducing bacteria (SRB) and acid producing bacteria (AB) for biocide formulations containing CB Thione and WB Thione to Glut and THPS was examined.
(§2) A one gallon sample was separated from a five gallon sample of frac pond water for these studies. The frac pond water sample included SRB and AB. Ten mL of a 10^9 cfu/mL inoculum of SRB grown in anaerobic API broth containing an O2 scavenger and 10 mL of a 10^9 cfu/mL inoculum of AB grown in anaerobic phenol red (anPR) broth containing an O2 scavenger were added to the one gallon frac pond water sample, mixed well and allowed to incubate for a period of time sufficient to achieve a desired number of SRB and AB. All broth media for inoculum and serial dilution counts in this study was made at 4% salinity to match the salinity of the original frac pond water measured by total dissolved solids testing. To increase nutrient value and to emulate on-site friction reducing additives, a 30 weight % acrylic acid, 70% acrylamide copolymer was added to the inoculated gallon of frac pond water sample at 300 ppm and then referred to as the spiked frac pond water sample. The spiked sample was then divided into 99.0 g aliquots for testing the effect of various biocides at various concentrations on the SRB and AB over a 180 day contact time. One spiked aliquot would serve as the control sample to which no biocide would be added. Challenges were made to all aliquots using 0.5 mL of 10^8 SRB and 0.5 mL, of 10^8 AB at 14, 28, and 129 days contact time.
(§3) The biocides included a 20% water based Thione (WB Thione), a 24% caustic based Thione (CB Thione), a 25% Glut, and a 35% THPS. Stock biocide solutions of various concentrations were made from these biocides as described below.
(§4) The WB Thione stock solutions were prepared by adding 3.0 g of the biocide to 17.0 g of sterile distilled water to form an intermediate solution, followed by combining each intermediate solution with water in the accounts shown in Table 1 below to make the descending concentrations as shown in Table 1.
as §4, with “The CB” for “The WB”, “the amounts” for “the accounts”, “Table 2” for “Table 1”, “Table 2.” for “Table 1.”
(§5) The Glut stock solutions were prepared by adding 1.0 g biocide to 19.0 g of sterile distilled water to form an intermediate solution, followed by combining each intermediate solution with water in the amounts shown in Table 3 below to make the descending concentrations as shown in Table 3.
(§6) The THPS stock solutions were prepared by adding 1.0 g of the biocide to 19.0 g of sterile distilled water to form an intermediate solution, followed by combining each intermediate solution with water in the amounts shown in Table 4 below to make the descending concentrations as shown in Table 4.
(§7) Next, 1 g of each biocide stock solution was added to the appropriately labeled 99.0 g aliquot. Also, 1.0 g of sterile water was added to the control aliquot. The concentrations of the biocides present in each aliquot are provided below in Table 5.
(§8) The aliquots were then incubated at room temperature in the dark for the entire study, i.e., 6 months. […] Using sterile syringes, this testing was performed by serial diluting the aliquots into sealed 9.0 mL anaerobic API broth and anaerobic PR broth bottles, both media containing an O2 scavenger, in the appropriate labeled set of SRB bottles (6 for each aliquot) mid AB bottles (6 for each aliquot) until a color change occurred, indicating the log quantity of organisms present in each aliquot.

[2] = system: sulfate reducing bacteria (SRB); assay: Biocidal effectiveness on sulfate reducing bacteria in spiked frac pond water, serial dilution counts over 180 days with challenges; type: cell-based
Protocol: as §1, §2, §3, §4
as §4, with “The CB” for “The WB”, “the amounts” for “the accounts”, “Table 2” for “Table 1”, “Table 2.” for “Table 1.”
as §5, §6, §7, §8

[3] = 500 ppm as is (Glut, THPS), 7 Days
[4] = 500 ppm as is (Glut, THPS), 14 Days
[5] = 500 ppm as is (Glut, THPS), 21 Days
[6] = 500 ppm as is (Glut, THPS), 28 Days
[7] = 500 ppm as is (Glut, THPS), 35 Days
[8] = 500 ppm as is (Glut, THPS), 42 Days
[9] = 500 ppm as is (Glut, THPS), 58 Days
[10] = 500 ppm as is (Glut, THPS), 90 Days
[11] = up to 180 days contact time, challenges at 14, 28 and 129 days

O=S(=O)([O-])[O-].OC[P+](CO)(CO)CO.OC[P+](CO)(CO)CO [THPS, tetra-kis-hydroxymethyly-phosphonium sulfate]
Log 10 Anaerobic Acid Producing Bacteria/mL ([1]; 50 ppm as is, 7 Days): 5 Log 10 Bacteria/mL
Log 10 Anaerobic Acid Producing Bacteria/mL ([1]; 50 ppm as is, 14 Days): ≧6 Log 10 Bacteria/mL
Log 10 Anaerobic Acid Producing Bacteria/mL ([1]; 50 ppm as is, 21 Days): ≧6 Log 10 Bacteria/mL
Log 10 Anaerobic Acid Producing Bacteria/mL ([1]; 50 ppm as is, 28 Days): ≧6 Log 10 Bacteria/mL
Log 10 Anaerobic Acid Producing Bacteria/mL ([1]; 50 ppm as is, 35 Days): ≧6 Log 10 Bacteria/mL
Log 10 Anaerobic Acid Producing Bacteria/mL ([1]; 50 ppm as is, 42 Days): ≧6 Log 10 Bacteria/mL
Log 10 Anaerobic Acid Producing Bacteria/mL ([1]; 50 ppm as is, 58 Days): ≧6 Log 10 Bacteria/mL
Log 10 Anaerobic Acid Producing Bacteria/mL ([1]; 50 ppm as is, 90 Days): ≧6 Log 10 Bacteria/mL
Log 10 Anaerobic Acid Producing Bacteria/mL ([1]; 100 ppm as is, 7 Days): 5 Log 10 Bacteria/mL
Log 10 Anaerobic Acid Producing Bacteria/mL ([1]; 100 ppm as is, 14 Days): 5 Log 10 Bacteria/mL
Log 10 Anaerobic Acid Producing Bacteria/mL ([1]; 100 ppm as is, 21 Days): ≧6 Log 10 Bacteria/mL
Log 10 Anaerobic Acid Producing Bacteria/mL ([1]; 100 ppm as is, 28 Days): ≧6 Log 10 Bacteria/mL
Log 10 Anaerobic Acid Producing Bacteria/mL ([1]; 100 ppm as is, 35 Days): ≧6 Log 10 Bacteria/mL
Log 10 Anaerobic Acid Producing Bacteria/mL ([1]; 100 ppm as is, 42 Days): ≧6 Log 10 Bacteria/mL
Log 10 Anaerobic Acid Producing Bacteria/mL ([1]; 100 ppm as is, 58 Days): ≧6 Log 10 Bacteria/mL
Log 10 Anaerobic Acid Producing Bacteria/mL ([1]; 100 ppm as is, 90 Days): ≧5 Log 10 Bacteria/mL
Log 10 Anaerobic Acid Producing Bacteria/mL ([1]; 200 ppm as is, 7 Days): 1 Log 10 Bacteria/mL
Log 10 Anaerobic Acid Producing Bacteria/mL ([1]; 200 ppm as is, 14 Days): 0 Log 10 Bacteria/mL
Log 10 Anaerobic Acid Producing Bacteria/mL ([1]; 200 ppm as is, 21 Days): ≧6 Log 10 Bacteria/mL
Log 10 Anaerobic Acid Producing Bacteria/mL ([1]; 200 ppm as is, 28 Days): ≧6 Log 10 Bacteria/mL
Log 10 Anaerobic Acid Producing Bacteria/mL ([1]; 200 ppm as is, 35 Days): ≧6 Log 10 Bacteria/mL
Log 10 Anaerobic Acid Producing Bacteria/mL ([1]; 200 ppm as is, 42 Days): ≧6 Log 10 Bacteria/mL
Log 10 Anaerobic Acid Producing Bacteria/mL ([1]; 200 ppm as is, 58 Days): ≧6 Log 10 Bacteria/mL
Log 10 Anaerobic Acid Producing Bacteria/mL ([1]; 200 ppm as is, 90 Days): ≧6 Log 10 Bacteria/mL
Log 10 Anaerobic Acid Producing Bacteria/mL [1, 3]: 0 Log 10 Bacteria/mL
Log 10 Anaerobic Acid Producing Bacteria/mL [1, 4]: 0 Log 10 Bacteria/mL
Log 10 Anaerobic Acid Producing Bacteria/mL [1, 5]: 4 Log 10 Bacteria/mL
Log 10 Anaerobic Acid Producing Bacteria/mL [1, 6]: 3 Log 10 Bacteria/mL
Log 10 Anaerobic Acid Producing Bacteria/mL [1, 7]: 4 Log 10 Bacteria/mL
Log 10 Anaerobic Acid Producing Bacteria/mL [1, 8]: 3 Log 10 Bacteria/mL
Log 10 Anaerobic Acid Producing Bacteria/mL [1, 9]: ≧6 Log 10 Bacteria/mL
Log 10 Anaerobic Acid Producing Bacteria/mL [1, 10]: ≧6 Log 10 Bacteria/mL
control of AB in frac pond water (summary in words) [1, 11]: lost all control of SRB and AB from 1 to 21 days contact time; also recorded: failed after challenging once at 14 days contact time
Log 10 Anaerobic Sulfate Reducing Bacteria/mL ([2]; 60 ppm as is (DA), 7 Days): ≧6 Log 10 Bacteria/mL
Log 10 Anaerobic Sulfate Reducing Bacteria/mL ([2]; 60 ppm as is (DA), 14 Days): ≧6 Log 10 Bacteria/mL
Log 10 Anaerobic Sulfate Reducing Bacteria/mL ([2]; 60 ppm as is (DA), 21 Days): ≧5 Log 10 Bacteria/mL
Log 10 Anaerobic Sulfate Reducing Bacteria/mL ([2]; 60 ppm as is (DA), 28 Days): ≧6 Log 10 Bacteria/mL
Log 10 Anaerobic Sulfate Reducing Bacteria/mL ([2]; 60 ppm as is (DA), 35 Days): ≧6 Log 10 Bacteria/mL
Log 10 Anaerobic Sulfate Reducing Bacteria/mL ([2]; 60 ppm as is (DA), 42 Days): ≧6 Log 10 Bacteria/mL
Log 10 Anaerobic Sulfate Reducing Bacteria/mL ([2]; 60 ppm as is (DA), 58 Days): ≧6 Log 10 Bacteria/mL
Log 10 Anaerobic Sulfate Reducing Bacteria/mL ([2]; 60 ppm as is (DA), 90 Days): ≧6 Log 10 Bacteria/mL
Log 10 Anaerobic Sulfate Reducing Bacteria/mL ([2]; 100 ppm as is, 7 Days): 5 Log 10 Bacteria/mL
Log 10 Anaerobic Sulfate Reducing Bacteria/mL ([2]; 100 ppm as is, 14 Days): 5 Log 10 Bacteria/mL
Log 10 Anaerobic Sulfate Reducing Bacteria/mL ([2]; 100 ppm as is, 21 Days): ≧5 Log 10 Bacteria/mL
Log 10 Anaerobic Sulfate Reducing Bacteria/mL ([2]; 100 ppm as is, 28 Days): ≧6 Log 10 Bacteria/mL
Log 10 Anaerobic Sulfate Reducing Bacteria/mL ([2]; 100 ppm as is, 35 Days): ≧6 Log 10 Bacteria/mL
Log 10 Anaerobic Sulfate Reducing Bacteria/mL ([2]; 100 ppm as is, 42 Days): ≧6 Log 10 Bacteria/mL
Log 10 Anaerobic Sulfate Reducing Bacteria/mL ([2]; 100 ppm as is, 58 Days): ≧6 Log 10 Bacteria/mL
Log 10 Anaerobic Sulfate Reducing Bacteria/mL ([2]; 100 ppm as is, 90 Days): ≧6 Log 10 Bacteria/mL
Log 10 Anaerobic Sulfate Reducing Bacteria/mL ([2]; 200 ppm as is, 7 Days): 0 Log 10 Bacteria/mL
Log 10 Anaerobic Sulfate Reducing Bacteria/mL ([2]; 200 ppm as is, 14 Days): 0 Log 10 Bacteria/mL
Log 10 Anaerobic Sulfate Reducing Bacteria/mL ([2]; 200 ppm as is, 21 Days): ≧6 Log 10 Bacteria/mL
Log 10 Anaerobic Sulfate Reducing Bacteria/mL ([2]; 200 ppm as is, 28 Days): ≧6 Log 10 Bacteria/mL
Log 10 Anaerobic Sulfate Reducing Bacteria/mL ([2]; 200 ppm as is, 35 Days): ≧6 Log 10 Bacteria/mL
Log 10 Anaerobic Sulfate Reducing Bacteria/mL ([2]; 200 ppm as is, 42 Days): ≧6 Log 10 Bacteria/mL
Log 10 Anaerobic Sulfate Reducing Bacteria/mL ([2]; 200 ppm as is, 58 Days): ≧6 Log 10 Bacteria/mL
Log 10 Anaerobic Sulfate Reducing Bacteria/mL ([2]; 200 ppm as is, 90 Days): ≧6 Log 10 Bacteria/mL
Log 10 Anaerobic Sulfate Reducing Bacteria/mL [2, 3]: 0 Log 10 Bacteria/mL
Log 10 Anaerobic Sulfate Reducing Bacteria/mL [2, 4]: 0 Log 10 Bacteria/mL
Log 10 Anaerobic Sulfate Reducing Bacteria/mL [2, 5]: 4 Log 10 Bacteria/mL
Log 10 Anaerobic Sulfate Reducing Bacteria/mL [2, 6]: 3 Log 10 Bacteria/mL
Log 10 Anaerobic Sulfate Reducing Bacteria/mL [2, 7]: 3 Log 10 Bacteria/mL
Log 10 Anaerobic Sulfate Reducing Bacteria/mL [2, 8]: ≧6 Log 10 Bacteria/mL
Log 10 Anaerobic Sulfate Reducing Bacteria/mL [2, 9]: ≧6 Log 10 Bacteria/mL
Log 10 Anaerobic Sulfate Reducing Bacteria/mL [2, 10]: ≧6 Log 10 Bacteria/mL
control of SRB in frac pond water (summary in words) [2, 11]: lost all control of SRB and AB from 1 to 21 days contact time; also recorded: failed completely after challenging once at 14 days contact time at all concentrations
